Results published in PMC7346113, “Screening of Natural Stilbene Oligomers from Vitis vinifera for Anticancer Activity on Human Hepatocellular Carcinoma Cells” (Antioxidants, 2020).

What was measured:
Type in all cases: cell-based, human
Details in all cases: mean ± standard error
HH4 = experiment: Cell viability, crystal violet assay, HH4 non-transformed hepatocytes
Text: (§1) The human hepatoma cell line HepG2 was obtained from the American Tissue Culture Collection (ATCC, Manassas, VA, USA). The human hepatoma cell line Hep3B was obtained from the European Collection of Authenticated Cell Cultures (ECACC, Porton Down, Salisbury, Wiltshire, UK). HH4 non-transformed human hepatocyte cell line (kindly provided by Dr. I. Fabregat, Molecular Oncology, Bellvitge Biomedical Research Institute, Spain) was established as described.
(§2) HepG2 and Hep3B cell lines were maintained in Eagle’s Minimum Essential Medium and HH4 cell line was grown in Ham´s F12 Nutrient Mixture (Sigma-Aldrich, St Louis, MO, USA). Both culture media were supplemented with 10% heat inactivated fetal bovine serum, 2 mM L-glutamine and antibiotics (0.1 mg/mL streptomycin and 100 U/mL penicillin) (Sigma-Aldrich, St Louis, MO, USA). Cell cultures were grown in an incubator at 37 °C with 5% CO2 atmosphere. After reaching approximately 80% of confluence, cells were detached in a solution of 0.1% trypsin and 0.04% EDTA and plated as required for further experiments.
(§3) Cell lines were seeded into 96-well plates at 5 × 10^3 (HepG2) and 3 × 10^3 (Hep3B and HH4) cells/well 24 h before treatment. Increasing concentrations of the monomer trans-resveratrol, the dimers ampelopsin A and trans-ε-viniferin and the tetramers isohopeaphenol, hopeaphenol, R2-viniferin and R-viniferin were then added and cells were incubated for 24, 48, and 72 h. Stilbenes were dissolved in dimethyl sulfoxide (DMSO), Sigma-Aldrich, St Louis, MO, USA) at a final concentration of 0.01%. The same amount of DMSO was added to control cells. After treatment, the cell viability was determined using the crystal violet assay. The absorbance was recorded at 590 nm in a Synergy HT microplate reader (BioTek, Winooski, VT, USA). Cell viability was calculated as the percentage of viable cells treated with stilbene versus untreated control cells using the following equation: Cell viability (%) = [OD (Treatment) − OD (Blank)]/[OD (Control) − OD (Blank)] × 100. The cytotoxic effect of stilbenes was determined by calculating IC50 values using non-linear regression analysis (GraphPad Prism 6, San Diego, CA, USA).
(§4) The statistical package SPSS 19.0 (SPSS Inc. Chicago, IL, USA) was used for data analysis. The results were expressed as mean ± standard error (SE) from at least three experiments. Statistical significance for the differences of the means was estimated by parametric Student’s t-test. Differences between means were considered statistically significant for p < 0.05. IC50 values were derived from fitting the data to a sigmoidal dose-response curve with a three-parameter logistic model using Graph Pad Prism 6.

HepG2 = experiment: Cell viability, crystal violet assay, HepG2
Text: as §1, §2, §3, §4

Hep3B = experiment: Cell viability, crystal violet assay, Hep3B
Text: as §1, §2, §3, §4

[1] = Homo sapiens, HepG2, 24 h, 24 h
[2] = Homo sapiens, HepG2, 48 h, 48 h
[3] = Homo sapiens, HepG2, 72 h, 72 h

Oc1ccc([C@H]2c3c(O)cc(O)cc3[C@H]3c4c(cc(O)cc4[C@@H]2O)O[C@@H]3c2ccc(O)cc2)cc1 [Ampelopsin A]
IC50 (HH4; Homo sapiens, Hepatocyte, 24 h): > 200 µM
IC50 (HH4; Homo sapiens, Hepatocyte, 48 h): 178 ± 67.8 µM
IC50 (HH4; Homo sapiens, Hepatocyte, 72 h): 134 ± 34.7 µM
IC50 (HepG2; 72 h): 75.5 ± 21.5 µM
IC50 (HepG2; [1]): > 200 µM
IC50 (HepG2; [2]): 98.6 ± 24.9 µM
IC50 (HepG2; [3]): 76 µM
IC50 (Hep3B; Homo sapiens, Hep3B, 24 h): > 200 µM
IC50 (Hep3B; Homo sapiens, Hep3B, 48 h): 148 ± 14.4 µM
IC50 (Hep3B; Homo sapiens, Hep3B, 72 h): 109 ± 7.3 µM

Oc1ccc([C@H]2c3c(O)cc(O)cc3[C@H]3c4c(cc(O)cc4[C@@H]2[C@H]2c4cc(O)cc5c4[C@H](c4cc(O)cc(O)c4[C@@H]2c2ccc(O)cc2)[C@@H](c2ccc(O)cc2)O5)O[C@@H]3c2ccc(O)cc2)cc1 [Hopeaphenol]
IC50 (HH4; Homo sapiens, Hepatocyte, 24 h): > 200 µM
IC50 (HH4; Homo sapiens, Hepatocyte, 48 h): 92 ± 38 µM
IC50 (HH4; Homo sapiens, Hepatocyte, 72 h): 37.6 ± 13 µM
IC50 (HepG2; 72 h): 24.4 ± 2 µM
IC50 (HepG2; [1]): > 200 µM
IC50 (HepG2; [2]): 27 ± 3.3 µM
IC50 (HepG2; [3]): 24 µM
IC50 (Hep3B; 72 h): 13.1 ± 4.1 µM
IC50 (Hep3B; Homo sapiens, Hep3B, 24 h): > 200 µM
IC50 (Hep3B; Homo sapiens, Hep3B, 48 h): 16.8 ± 2.3 µM
IC50 (Hep3B; Homo sapiens, Hep3B, 72 h): 13 µM

Oc1ccc([C@@H]2c3c(O)cc(O)cc3[C@H]3c4c(cc(O)cc4[C@@H]2[C@H]2c4cc(O)cc5c4[C@H](c4cc(O)cc(O)c4[C@H]2c2ccc(O)cc2)[C@@H](c2ccc(O)cc2)O5)O[C@@H]3c2ccc(O)cc2)cc1 [Isohopeaphenol]
IC50 (HH4; Homo sapiens, Hepatocyte, 24 h): > 200 µM
IC50 (HH4; Homo sapiens, Hepatocyte, 48 h): 96 ± 5.5 µM
IC50 (HH4; Homo sapiens, Hepatocyte, 72 h): 63.7 ± 3.7 µM
IC50 (HepG2; 72 h): 54.1 ± 34 µM
IC50 (HepG2; [1]): 113 ± 33 µM
IC50 (HepG2; [2]): 68.8 ± 31 µM
IC50 (HepG2; [3]): 54 µM
IC50 (Hep3B; Homo sapiens, Hep3B, 24 h): 86.6 ± 11.7 µM
IC50 (Hep3B; Homo sapiens, Hep3B, 48 h): 37 ± 4.5 µM
IC50 (Hep3B; Homo sapiens, Hep3B, 72 h): 26 ± 3 µM

Oc1ccc([C@H]2Oc3cc(O)cc(/C=C/c4ccc5c(c4)[C@@H](c4cc(O)cc6c4[C@H](c4cc(O)cc(O)c4)[C@@H](c4ccc(O)cc4)O6)[C@H](c4ccc(O)cc4)O5)c3[C@@H]2c2cc(O)cc(O)c2)cc1 [R-Viniferin]
IC50 (HepG2; [1]): > 200 µM
IC50 (HepG2; [2]): > 200 µM
IC50 (HepG2; [3]): 192 ± 27.1 µM
IC50 (Hep3B; Homo sapiens, Hep3B, 24 h): > 200 µM
IC50 (Hep3B; Homo sapiens, Hep3B, 48 h): 137 ± 19.8 µM
IC50 (Hep3B; Homo sapiens, Hep3B, 72 h): 135 ± 35.7 µM

Oc1ccc(/C=C/c2cc(O)cc(O)c2)cc1 [trans-Resveratrol, reference compound]
IC50 (HH4; Homo sapiens, Hepatocyte, 24 h): > 200 µM
IC50 (HH4; Homo sapiens, Hepatocyte, 48 h): 135 ± 9 µM
IC50 (HH4; Homo sapiens, Hepatocyte, 72 h): 93 ± 16.1 µM
IC50 (HepG2; 72 h): 30.3 ± 4.4 µM
IC50 (HepG2; [1]): > 200 µM
IC50 (HepG2; [2]): 40.3 ± 9.3 µM
IC50 (HepG2; [3]): 30 µM
IC50 (Hep3B; Homo sapiens, Hep3B, 24 h): > 200 µM
IC50 (Hep3B; Homo sapiens, Hep3B, 48 h): 42 ± 11.6 µM
IC50 (Hep3B; Homo sapiens, Hep3B, 72 h): 21 ± 16.8 µM

Oc1ccc(/C=C/c2cc(O)cc3c2[C@@H](c2cc(O)cc(O)c2)[C@H](c2ccc(O)cc2)O3)cc1 [trans-ε-Viniferin]
IC50 (HH4; 72 h): 178 ± 20.5 µM
IC50 (HH4; Homo sapiens, Hepatocyte, 24 h): > 200 µM
IC50 (HH4; Homo sapiens, Hepatocyte, 48 h): 193 ± 21.1 µM
IC50 (HH4; Homo sapiens, Hepatocyte, 72 h): 178 µM
IC50 (HepG2; [1]): 140 ± 39.7 µM
IC50 (HepG2; [2]): 104 ± 19.2 µM
IC50 (HepG2; [3]): 94.8 ± 28.3 µM
IC50 (Hep3B; 72 h): 63.1 ± 10.8 µM
IC50 (Hep3B; Homo sapiens, Hep3B, 24 h): 108 ± 31.8 µM
IC50 (Hep3B; Homo sapiens, Hep3B, 48 h): 73.9 ± 17.3 µM
IC50 (Hep3B; Homo sapiens, Hep3B, 72 h): 63 µM
